Article PMC8348161, “Cardiolipin-Containing Lipid Membranes Attract the Bacterial Cell Division Protein DivIVA” (International Journal of Molecular Sciences, 2021)

Biological target: T1, DivIVACd (Clostridioides difficile, UniProt Q182V3)
T1 construct: gene CD630_26190; full length, untagged (pET-26b) or His-SUMO tag cut by Ulp1 without extra residues; E. coli BL21(DE3)pLysS; forms large polymers
T1 sequence (Q182V3 1-175): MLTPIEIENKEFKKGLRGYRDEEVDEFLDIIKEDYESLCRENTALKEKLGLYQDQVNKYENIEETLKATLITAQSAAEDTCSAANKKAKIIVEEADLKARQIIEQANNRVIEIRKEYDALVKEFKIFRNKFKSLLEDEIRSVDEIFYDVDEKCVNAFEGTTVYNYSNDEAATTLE
Assay: QCM-D, protein titrated over supported lipid bilayer, Hill fit
Assay type: binding
Settings: 5% CL in mixed bilayer (65% DOPC, 30% DOPG, 5% TOCL); protein concentration scale; Hill coefficient 1.0; pH 7.4, 250 mM KCl, 5 mM MgCl2, 23 °C

CCCCCCCC/C=C\CCCCCCCC(=O)OC[C@H](COP(=O)(O)OCC(O)COP(=O)(O)OC[C@@H](COC(=O)CCCCCCC/C=C\CCCCCCCC)OC(=O)CCCCCCC/C=C\CCCCCCCC)OC(=O)CCCCCCC/C=C\CCCCCCCC (stereo partly shown) [TOCL, 1,3-bis[1,2-dioleoyl-sn-glycero-3-phospho]-glycerol]
Kd: 1.3 µM
